Assay results taken from US20070054887A1, “Methods for treating bladder dysfunction” (BioXell S.p.A, priority 2003, published 2007).

Key:
human bladder cells = experiment: inhibition of basal human bladder cell growth; assay type: cell-based; details: Homo sapiens
hBC [1] = experiment: DNA fragmentation / apoptotic index in hBC by in situ end labelling (ISEL); details: Compound A 10 nM, alone and in the presence of KGF (10 ng/ml) or testosterone (10 nM); FIG. 7
desmin = desmin gene and protein expression in serum-starved hBC; assay type: cell-based, human; details: 10 nM
Method: To detect desmin both at gene or protein level hBC cells were seeded in their growth medium onto 10 mm diameter culture dishes or onto sterile glass slides (about 10^4 cells/ml), for mRNA or immunocytochemical analysis, respectively. hBC cells at about 30% confluency, after overnight starvation in serum-free medium were incubated in phenol red- and serum-free medium containing 0.1% BSA with or without Compound A (10^−8 M) for 2, 4, 8 and 12 days, and the medium was changed every 2 days. Cells were harvested for mRNA or protein analysis by Taqman or Western blot analysis, respectively, and the slides were processed for specific protein immunocytochemical detection Quantitative analysis using real-time RT-PCR of desmin mRNA expression in serum-starved hBC treated with Compound A (10 nM, grey columns) was examined at different time points (2-12 days). Results are derived from five different experiments from three distinct hBC preparations and are expressed as fold increase compared to time zero. *P≦0.01 or °P=0.04 vs. control, open columns and are shown in FIG. 8.
Western blot detection of desmin in hBC was conducted as follows: thirty μg of proteins were separated by 10% SDS-PAGE, transferred onto nitrocellulose membrane, and probed with anti-desmin antibody (1:1000). A band of about 58 kDa was detected in each sample of hBC. […]

hBC [2] = experiment: androgen-stimulated hBC growth, 48 h incubation; assay type: cell-based, human; details: DHT 10 nM, Compound A 1 nM, finasteride 1 nM, FIG. 5
Excerpt: Results are expressed as percentage variation (mean±SEM) over their relative controls and derived from at least three different experiments obtained from three distinct hBC cell preparations. *P<0.05 (vs. control); °P<0.01 (vs. androgen-treated cells).

BOO rats = experiment: bladder outlet obstruction (BOO) rat model: cystometry and bladder weight; assay type: in vivo, Sprague-Dawley rats; details: 150 ug/kg/daily over 2 weeks
Method: Female Sprague-Dawley rats, weighing 200-250 g
Group A: BOO rats, treated with the vitamin D analogue over 2 weeks, beginning at day 1 after creation of the obstruction (n=12)
Group B: BOO rats, treated with vehicle over 2 weeks, beginning at day 1 after creation of the obstruction (n=12)
Group C: Sham operated rats, treated with the vitamin D analogue over 2 weeks, beginning at day 1 after surgery (n=12)
a) Cystometry (˜18 hours after last administration of the drug/vehicle, 12 hours after removal of the obstructing ligature) under conscious conditions.
The bladder and urethrovesical junction were exposed through a lower abdominal midline incision. A 0.9 mm metal rod was placed alongside the proximal urethra and a 3-0 silk ligature was tied tightly around the urethra and the rod, which was consequently removed. Sham surgery was performed accordingly, without placing the ligature. After 13 days the ligature was removed and a catheter was inserted into the bladder dome and tunneled subcutaneously.
The following morning after insertion of the catheter, the cystometric investigation was performed without any anesthesia or restraint in a metabolic cage. The amount of voided urine was measured by means of a fluid collector, connected to a force displacement transducer. The bladder was continuously filled with saline at room temperature. The catheter was also connected to a pressure transducer. After a stabilization period of 30-60 minutes, when reproducible voiding patterns are achieved, the following parameters were recorded over a period of 30 min: Basal bladder pressure, micturition pressure, threshold pressure, micturition interval and volume, and non-voiding contractions. The amount of residual urine was investigated manually 3 times, at the end of the cystometry. Bladder capacity was calculated based on the measured values.
The validated bladder outlet obstruction rat model described above was used to test the ability of vitamin D3 analogues to control and treat bladder dysfunction. The objective was to evaluate whether a vitamin D3 analogue (1-alpha-fluoro-25-hydroxy-16,23e-diene-26,27-bishomo-20-epi-cholecalciferol-Compound “A”) at the dose of 150 ug/kg/daily can prevent bladder hypertrophy and bladder dysfunction such as bladder overactivity.
In this model a ligature was surgically placed around the outlet of the catheterized bladder, so that when the catheter was removed, the bladder experienced increased urethral resistance. The rats underwent continuous cystometry to evaluate bladder function. In addition the contractile properties of isolated bladder preparation in response to nerve stimulation and exogenous stimuli in vitro were investigated under electrical field stimulation (EFS).

bcl-2 = experiment: Bcl-2 protein expression in hBC by immunocytochemistry; assay type: cell-based, human; details: Compound A 10 nM, alone and in the presence of KGF (10 ng/ml) or testosterone (10 nM); FIG. 6
Method: After incubation with the indicated stimuli, slides were washed twice with PBS pH 7.4 and fixed in 3.7% paraformaldehyde in PBS for 15 min at room temperature, followed by permeabilization in 3.7% paraformaldehyde in PBS, containing 0.1% Triton X-100 for 15 min at room temperature. Anti-Bcl-2 mAb (1:40) diluted in PBS containing 2% BSA was added to the slides and incubated overnight at 4° C. Slides were washed three times (5 min) in PBS and incubated 45 min at room temperature with 2% BSA-PBS, containing the secondary antibody (dilution 1:1000). After three washes in PBS, the slides were examined with a phase contrast microscope (Nikon mocrophot-FX microscopes; Nikon, Kogaku, Tokyo, Japan). Slides lacking the primary antibody or stained with the corresponding non-immune serum served as controls.

C=C1/C(=C\C=C2/CCC[C@]3(C)C([C@@H](C)C/C=C/C(O)(CC)CC)=CC[C@@H]23)C[C@@H](O)C[C@@H]1F [Compound A, 1-alpha-fluoro-25-hydroxy-16,23E-diene-26,27-bishomo-20-epi-cholecalciferol]
IC50 (human bladder cells): 6.31 pM | apoptotic index (hBC [1]): significantly increases | desmin protein expression (Western blot) (desmin; at any time point tested (2-12 days), FIG. 9): decreased | serum starvation-induced progressive increase in desmin expression (desmin; mRNA and protein, FIGS. 8-11): almost completely counteracted | hBC proliferation stimulated by the androgen DHT (hBC [2]): inhibits | spontaneous non-voiding contraction amplitude (BOO rats; versus vehicle): significant differences versus vehicle | spontaneous non-voiding contraction frequency (BOO rats; versus vehicle): significant differences versus vehicle | micturition pressure (BOO rats; versus vehicle, FIG. 19): significant differences versus vehicle | bladder weight (BOO rats; FIG. 16): slight decrease | residual urine (BOO rats; FIG. 20): absent | bcl-2 expression (percentage of bcl-2 stained cells) (bcl-2): significantly inhibits
